Consider 58 compounds from article PMC12040169 (PLOS Biology, 2025).

Molecules are shown by their SMILES.

The nature of this data set: in vitro. The following applies: human, hela cells, % viability.
The viability is a read-out of living cells in per cent, often relative to untreated cells. In the case of `O=C(NC(C(=O)c1ccccc1)N1CCCCC1)c1ccccc1` (stereo not shown) [CBK261035], the viability at 28.5 h, 10 µM came to 123%. For `Cn1cc(NC(=O)CCn2c(C(F)(F)F)cc3cccnc32)cn1` [CBK284866] the value was 92.5%. As for `CCOc1ccc(OC(=O)c2cccc(C)c2)cc1` [CBK083575], the figure is 101%; as for `C[C@@H]1CN(c2ccc(C(F)(F)F)c(OCc3ccccc3)n2)CCN1` [CBK003987A], 94%. For `CC(C)(C)OC(=O)N1CCCCC1(C)c1nnc(-c2cccnc2)o1` (stereo not shown) [CBK304714] the value was 90.2%; for `COc1cccc(-c2cccc(C3CCCN(C(=O)Cc4c[nH]c5ccccc45)C3)n2)c1` (stereo not shown) [CBK286207], 114%; for `COc1ccc2ccccc2c1CN1CCN(Cc2ccccc2)CC1` [CBK261913], 98.5%. Take `Cc1ccc(Nc2nc3c(c(=O)[nH]2)CCCC3)cc1` [CBK287895]: the viability at 28.5 h, 10 µM amounted to 100%. As for `Cn1c(=O)n(C)c2cc(CN3CCN(C4CCCC4)C(=O)C3)ccc21` [CBK281909], the figure is 97.1%; as for `CCOc1ccccc1N1C(=O)CC(Sc2nc(-c3ccccc3)c3cc(Cl)ccc3n2)C1=O` (stereo not shown) [CBK265405], 116%. As for `Nc1ncnc2c1nc(N)n2[C@H]1C[C@@H](O)[C@@H](CO)O1` [CBK201222], the figure is 101%; as for `Cc1ccc2nsnc2c1NC(=O)CSc1nccn1C` [CBK269411], 104%; as for `O=C(O)C1Cc2ccccc2C(=O)N1CCc1ccccc1` (stereo not shown) [CBK286592], 87.4%. For `CCOc1cc(/C=N/Nc2nncn2N)cc(I)c1O` [CBK027879] the value was 93.6%; for `O=C(O)CCN1C(=O)C(=Cc2ccc(OCc3ccccc3)cc2)c2ccccc2C1=O` [CBK297552], 105%.

For the compound `COc1cc(-c2nc(N)n[nH]2)cc(OC)c1OC` [CBK288077], the viability at 28.5 h, 10 µM came to 103%. For `O=C(O)CCCNC(=O)c1cncc(O)c1` [CBK262060] the value was 81.8%.

Take `CCc1nc2cccnc2n1CCNC(=O)Cc1cccs1` [CBK283639]: the viability at 28.5 h, 10 µM worked out at 98.9%. As to `Nc1ccc(-c2nc(NC(=O)Cc3ccccc3)cnc2-c2ccc(F)c(Cl)c2)cc1` [CBK036690], the viability at 28.5 h, 10 µM stood at 89.5%. As for `COc1ccc(C(=O)/C=C(\Nc2cccc(C(F)(F)F)c2)C(=O)O)cc1` [CBK264387], the figure is 107%; as for `Nc1ccc(-c2nc(-c3ccccc3)c3cc(-c4ccc5nc(-c6ccc(N)cc6)nc(-c6ccccc6)c5c4)ccc3n2)cc1` [CBK261152], 107%; as for `CCCc1ccc(S(=O)(=O)Nc2cccc(C(=O)Nc3ccc(F)cc3)c2)cc1` [CBK038978], 97.4%.

On to `N#Cc1cccnc1N1CCC(NC(=O)Cn2cccnc2=O)CC1` [CBK307275], for which the viability at 28.5 h, 10 µM stood at 95.7%. As for `CC(C)Cc1cc(CNC(=O)C(C)n2cc(Cl)cn2)on1` (stereo not shown) [CBK281524], the figure is 92.8%; as for `O=C(Cn1cc(C(=O)NC2(c3ccccc3)CCCC2)ccc1=O)NC1CCCCC1` [CBK285986], 82.6%; as for `Cn1nc([N+](=O)[O-])nc1Sc1nnnn1-c1ccc(C(=O)O)cc1` [CBK266961], 109%.

For the compound `O=C(O)c1ccc(CNCC(O)c2ccccc2)cc1` (stereo not shown) [CBK287243], the viability at 28.5 h, 10 µM amounted to 109%. For `CC(NC(=O)N(CCCN)Cc1ccccc1C(F)(F)F)c1ccccc1` (stereo not shown) [CBK034668C] the value was 99.9%; for `COCc1nnc(Sc2nc3ccccc3nc2NC(C)C)s1` [CBK115253], 96.5%; for `O=C(CNS(=O)(=O)c1ccc(Oc2ccccc2)cc1)Nc1ccc(F)cc1` [CBK042229], 104%. As for `Fc1cccc(Nc2nc(-c3ccncc3)nc3ccccc23)c1` [CBK072732], the figure is 89.5%.

For `COc1cc(C(=O)N2CCC(N(C)C)C2)ccc1Nc1cncc(-c2cc3ccccc3[nH]2)n1` (stereo not shown) [CBK161475], the viability at 28.5 h, 10 µM amounted to 90.6%. Take `COc1ncccc1CNC(=O)Nc1cccn(CC(F)(F)F)c1=O` [CBK305216]: the viability at 28.5 h, 10 µM came to 113%. For `COc1ccccc1CCC(=O)NCc1cnc(SC)n1C` [CBK306926] the value was 85.9%; for `O=C(c1cc[nH]c1)N1CCN(C(=O)c2ccco2)CC1` [CBK144467], 90%; for `N#Cc1ccccc1CSc1nc(N2CCOCC2)nc(N2CCOCC2)n1` [CBK268998], 92.3%. On to `O=C(c1ccccc1F)[C@H]1CCCN(C(=O)c2cc(C3CC3)n[nH]2)C1` [CBK284330], for which the viability at 28.5 h, 10 µM worked out at 80%.

In the case of `c1ccc(-c2nnc(-c3ccco3)c(-c3ccco3)n2)cc1` [CBK286196], the viability at 28.5 h, 10 µM is 83.7%.

On to `Cc1c(C(=O)NC(C)c2cc3ccccc3o2)cnn1C` (stereo not shown) [CBK283074], for which the viability at 28.5 h, 10 µM was determined as 99.3%. Take `CN(C)CCNC(=O)Cn1c(-c2ccc(F)cc2)cc2cccnc21` [CBK284820]: the viability at 28.5 h, 10 µM turned out to be 97.7%.

Regarding `Cc1cc(C)n(S(=O)(=O)c2cc(C(=O)O)c(Cl)cc2Cl)n1` [CBK113170], the viability at 28.5 h, 10 µM worked out at 86.3%.

Consider `O=C(O)CCc1nnc(S)n1Cc1ccccc1` [CBK286926], for which the viability at 28.5 h, 10 µM turned out to be 93.8%. For `CCc1ccc(CNC(=O)NC2CCCc3c2cnn3CCO)s1` (stereo not shown) [CBK305747] the value was 84.4%; for `CC1CCc2onc(C(=O)NCc3nccn3C)c2C1` (stereo not shown) [CBK281514], 68.9%; for `CC1(C)CC(=O)C2=C(C1)Nc1ccccc1N(CC(=O)O)C2c1cccs1` (stereo not shown) [CBK286597], 83.6%. As for `O=C1Cc2ccccc2C2(CCN(C(=O)NCc3cccc(F)c3)CC2)N1` [CBK047288], the figure is 81%.

Regarding `CCn1nc(C)c(CN(C)C(=O)C2CC=CCC2C(=O)O)c1C` (stereo not shown) [CBK286884], the viability at 28.5 h, 10 µM was determined as 86.1%.

Regarding `COc1ccccc1-c1ccc(CN(C)Cc2ccccc2N2CCOCC2)cc1` [CBK286108], the viability at 28.5 h, 10 µM came out at 90.6%. With `CC(=O)Oc1ccc(-c2cccc(C(=O)NCC(=O)O)c2)cc1` [CBK263828], the viability at 28.5 h, 10 µM came out at 86.9%.

For `C(=N\c1ccc2c(c1)OCCOCCOc1cc(/N=C/c3ccccc3)ccc1OCCOCCO2)/c1ccccc1` [CBK261388], the viability at 28.5 h, 10 µM is 100%. For the compound `CC(NC(=O)N(C)Cc1ccc2ccccc2n1)c1nncn1C(C)C` (stereo not shown) [CBK307197], the viability at 28.5 h, 10 µM was 92.9%.

For `CCc1cc(C(=O)NC(c2ccncc2)c2cccs2)n(C)n1` (stereo not shown) [CBK281482], the viability at 28.5 h, 10 µM worked out at 109%.

Consider `O=C1/C(=C\Nc2cccc3cccnc23)Sc2ccccc21` [CBK261647], for which the viability at 28.5 h, 10 µM was determined as 93.8%. In the case of `Cc1ccc(C(=O)NCCCNc2ccc(Cl)cc2[N+](=O)[O-])cc1` [CBK262334], the viability at 28.5 h, 10 µM worked out at 101%. As for `Cc1ccc(S(=O)(=O)NCC(=O)Nc2ccc(Cl)nc2)cc1` [CBK091355], the figure is 96.1%; as for `COc1ccc(-c2cnc3[nH]c(=O)n([C@H](CO)C(C)C)c3n2)c(OC)c1OC` [CBK065008], 99.1%. With `Cc1oc(-c2cccc(Cl)c2)cc1C(=O)O` [CBK045856], the viability at 28.5 h, 10 µM came to 78%. On to `COCCOC(=O)N1CCC(C(=O)NC(c2ccccc2)c2ccsc2)CC1` (stereo not shown) [CBK060155], for which the viability at 28.5 h, 10 µM was found to be 94.4%.
